Like-named read-outs stand apart in the source and are kept apart here.
Experiments:
[1] = target: GSK3α (GST-full length GSK3α) (Homo sapiens (Human), UniProt P49840); test: GSK3α TR-FRET kinase assay; format: biochemical
Procedure, shortened: (§1)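 In this time-resolved FRET format, kinase reactions contained 200 nM biotinylated, S645-phosphorylated glycogen synthase 631-650 peptide and either isoform-specific ATP (2 μM GSK3b, 4 μM GSK3α) or 1 mM ATP. They were quenched with EDTA after 100 min at ambient temperature. Inhibition curves gave IC50 values.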

[2] = target: GSK3b (GST-full length GSK3b) (Homo sapiens (Human), UniProt P49841); test: GSK3b TR-FRET kinase assay; format: biochemical
Procedure, shortened: as §1

[3] = 1 nM GSK3α, 4 μM ATP, 30 minute preincubation, geometric mean, read-out: GSK3-A TR-FRET BIOCHEMICAL (TR-FRET), GMean, IC50
[4] = 1 nM GSK3b, 2 μM ATP, 30 minute preincubation, geometric mean, read-out: GSK3-B TR-FRET BIOCHEMICAL (TR-FRET), GMean, IC50
[5] = read-out: GSK3-A (TR-FRET 1 mM ATP), GMean, IC50, 1 mM ATP, geometric mean
[6] = read-out: GSK3-B (TR-FRET 1 mM ATP), GMean, IC50, 1 mM ATP, geometric mean
[7] = 1 nM GSK3α, 4 μM ATP, 30 minute preincubation, read-out: GSK3-A TR-FRET BIOCHEMICAL (TR-FRET), IC50
[8] = 1 nM GSK3b, 2 μM ATP, 30 minute preincubation, read-out: GSK3-B TR-FRET BIOCHEMICAL (TR-FRET), IC50
[9] = 1 nM GSK3α, 4 μM ATP, 30 minute preincubation, Table 16, read-out: GSK3-A TR-FRET BIOCHEMICAL (TR-FRET)
[10] = 1 nM GSK3b, 2 μM ATP, 30 minute preincubation, Table 16, read-out: GSK3-B TR-FRET BIOCHEMICAL (TR-FRET)
[11] = GSK3-A (TR-FRET 1 mM ATP), GMean, IC50, 1 mM ATP, geometric mean
[12] = GSK3-B (TR-FRET 1 mM ATP), GMean, IC50, 1 mM ATP, geometric mean

Sequence of GSK3b (GST-full length GSK3b) (P49841 whole entry): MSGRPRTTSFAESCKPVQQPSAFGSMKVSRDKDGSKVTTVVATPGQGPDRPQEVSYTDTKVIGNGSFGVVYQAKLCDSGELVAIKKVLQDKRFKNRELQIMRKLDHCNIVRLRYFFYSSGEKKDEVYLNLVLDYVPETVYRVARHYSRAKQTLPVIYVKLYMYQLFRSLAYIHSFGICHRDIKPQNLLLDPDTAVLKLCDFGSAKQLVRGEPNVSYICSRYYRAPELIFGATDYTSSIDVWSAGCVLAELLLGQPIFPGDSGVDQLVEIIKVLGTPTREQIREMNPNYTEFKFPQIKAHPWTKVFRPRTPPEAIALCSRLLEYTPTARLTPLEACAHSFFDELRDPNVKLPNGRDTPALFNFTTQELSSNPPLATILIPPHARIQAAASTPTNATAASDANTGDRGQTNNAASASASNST
Sequence of GSK3α (GST-full length GSK3α) (P49840 whole entry, canonical isoform): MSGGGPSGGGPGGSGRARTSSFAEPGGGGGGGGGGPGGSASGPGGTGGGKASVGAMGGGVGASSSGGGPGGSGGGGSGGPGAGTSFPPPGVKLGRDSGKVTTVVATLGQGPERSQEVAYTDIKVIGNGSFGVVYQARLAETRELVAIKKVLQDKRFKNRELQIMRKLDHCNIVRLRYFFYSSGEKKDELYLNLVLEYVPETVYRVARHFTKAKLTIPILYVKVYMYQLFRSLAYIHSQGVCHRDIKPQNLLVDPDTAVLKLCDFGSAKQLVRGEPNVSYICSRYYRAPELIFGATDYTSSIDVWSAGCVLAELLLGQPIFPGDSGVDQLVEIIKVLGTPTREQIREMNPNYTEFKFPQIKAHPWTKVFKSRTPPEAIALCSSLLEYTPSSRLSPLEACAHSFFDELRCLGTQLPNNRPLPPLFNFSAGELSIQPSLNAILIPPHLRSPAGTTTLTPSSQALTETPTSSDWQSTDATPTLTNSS

IC50 [1, 3] [nM]	IC50 [2, 4] [nM]	further results	Structure (SMILES)
≤ 100	1000 to 5000		CCC1(c2cccc(-c3ccnc(C)c3)c2)C2=C(CC(C)(C)NC2=O)Nc2n[nH]c(F)c21 (stereo not drawn) [Compound 948299]
≤ 100	≤ 100		CCC1(c2cccc(-c3cn(C)nc3C)c2)C2=C(CC(C)(C)NC2=O)Nc2n[nH]c(F)c21 (stereo not drawn) [Compound 948301]
≤ 100	100 to 1000		CCC1(c2cccc(-c3ccnc(C)c3)c2)C2=C(CC(C)(C)N(C)C2=O)Nc2n[nH]cc21 (stereo not drawn) [Compound 948302]
≤ 100	≤ 100		CCC1(c2cccc(S(=O)(=O)C3CC3)c2)C2=C(CC(C)(C)N(C)C2=O)Nc2n[nH]cc21 (stereo not drawn) [Compound 948303]
≤ 100	≤ 100		CCC1(c2cccc(-c3cn(C)nc3C)c2)C2=C(CC(C)(C)N(C)C2=O)Nc2n[nH]cc21 (stereo not drawn) [Compound 948304]
≤ 100	≤ 100		CCC1(c2cccc(C(F)F)c2)C2=C(CC(C)(C)NC2=O)Nc2n[nH]c(C(F)(F)F)c21 (stereo not drawn) [Compound 948305]
≤ 100	100 to 1000		CC[C@]1(c2cccc(-c3ccnc(C)c3F)c2)C2=C(CC(C)(C)NC2=O)Nc2n[nH]cc21 [Compound 948306]
≤ 100	≤ 100	IC50 [1, 5]: ≤ 100 nM; IC50 [2, 6]: ≤ 100 nM	CC[C@]1(c2cccc(-c3cn[nH]c3)c2)C2=C(CC(C)(C)NC2=O)Nc2n[nH]c(C(F)(F)F)c21 [Compound 948307]
> 5000	> 5000		CCC1(c2cccc(-c3ccnc4c3CCC4)c2)C2=C(CC(C)(C)NC2=O)Nc2n[nH]cc21 (stereo not drawn) [Compound 948308]
≤ 100	100 to 1000		CC[C@@]1(c2cccc(-c3cn[nH]c3)c2)C2=C(CC(C)(C)NC2=O)Nc2n[nH]c(C(F)(F)F)c21 [Compound 948312]
≤ 100	≤ 100	IC50 [1, 5]: 100 to 1000 nM; IC50 [2, 6]: 1000 to 5000 nM	CC[C@@]1(c2cccc(-c3ccnc4c3CCC4)c2)C2=C(CC(C)(C)NC2=O)Nc2n[nH]cc21 [Compound 948313]
≤ 100	≤ 100	IC50 [1, 5]: ≤ 100 nM; IC50 [2, 6]: ≤ 100 nM	CCC1(c2cccc(-c3cn(C)nc3C)c2)C2=C(CC(C)(C)NC2=O)Nc2n[nH]c(C(F)(F)F)c21 (stereo not drawn) [Compound 948314]
		IC50 [1, 7]: ≤ 100 nM; IC50 [2, 8]: 100 to 1000 nM	CC(=O)N1CC[C@]2(C1)C[C@]1(CO2)C2=C(CC(C)(C)CC2=O)Nc2n[nH]cc21 [Compound 948319]
		IC50 [1, 7]: 100 to 1000 nM; IC50 [2, 8]: 1000 to 5000 nM	CC(=O)N1CC[C@@]2(C1)C[C@]1(CO2)C2=C(CC(C)(C)CC2=O)Nc2n[nH]cc21 [Compound 948320]
1000 to 5000	> 5000		CCc1cc(-c2cccc([C@]3(CC)C4=C(CC(C)(C)NC4=O)Nc4n[nH]cc43)c2)ccn1 [Compound 948360]
> 5000	> 5000		CC[C@@]1(c2cccc(-c3ccnc4cc(Cl)ccc34)c2)C2=C(CC(C)(C)NC2=O)Nc2n[nH]cc21 [Compound 948362]
1000 to 5000	> 5000		CCC1(c2cccc(-c3ccnn3C)c2)C2=C(CC3(CCCOC3)NC2=O)Nc2n[nH]cc21 (stereo not drawn) [Compound 948366]
100 to 1000	> 5000		CCC1(c2cccc(-c3ccncc3C)c2)C2=C(CC3(CCOCC3)NC2=O)Nc2n[nH]cc21 (stereo not drawn) [Compound 948367]
> 5000	> 5000		CC[C@@]1(c2cccc(-c3ccnc(C)c3Cl)c2)C2=C(CC(C)(C)NC2=O)Nc2n[nH]cc21 [Compound 948369]
≤ 100	≤ 100	IC50 [1, 5]: 100 to 1000 nM; IC50 [2, 6]: 100 to 1000 nM	CC[C@]1(c2cccc(-c3c(F)cncc3Cl)c2)C2=C(CC(C)(C)NC2=O)Nc2n[nH]cc21 [Compound 948371]
≤ 100	100 to 1000	IC50 [1, 5]: 100 to 1000 nM; IC50 [2, 6]: > 5000 nM	CCC1(c2cccc(C(F)(F)F)c2)C2=C(CCN(c3cncnc3)C2=O)Nc2n[nH]cc21 (stereo not drawn) [Compound 948379]
100 to 1000	> 5000		CCC1(c2cccc(C(F)(F)F)c2)C2=C(CCN(c3cncnc3)C2=O)Nc2n[nH]cc21 (stereo not drawn) [Compound 948380]
> 5000	> 5000		CCC1(c2cccc(-c3ccnc(C)c3)c2)C2=C(CC(C)(C)NC2=O)Nc2n[nH]c(C)c21 (stereo not drawn) [Compound 948414]
		IC50 [1, 9]: ≤ 100 nM; IC50 [2, 10]: ≤ 100 nM	Cc1cc([C@H]2CC[C@@]3(CC2)C2=C(CC(C)(C)CC2=O)Nc2n[nH]cc23)ccn1 [Compound 948415]

IC50 [1, 3] [nM]	IC50 [2, 4] [nM]	further results	Structure (SMILES)
		IC50 [1, 9]: ≤ 100 nM; IC50 [2, 10]: 100 to 1000 nM	Cc1cc([C@H]2CC[C@]3(CC2)C2=C(CC(C)(C)CC2=O)Nc2n[nH]cc23)ccn1 [Compound 948416]
≤ 100	≤ 100	IC50 [1, 5]: ≤ 100 nM; IC50 [2, 6]: ≤ 100 nM	CC[C@]1(c2cccc(S(=O)(=O)C(C)C)c2)C2=C(CC(C)(C)NC2=O)Nc2n[nH]c(C(F)(F)F)c21 [Compound 948419]
100 to 1000	100 to 1000		CC[C@@]1(c2cccc(S(C)(=O)=O)c2)C2=C(CC(C)(C)NC2=O)Nc2n[nH]c(C(F)(F)F)c21 [Compound 948422]
≤ 100	100 to 1000		CC[C@@]1(c2cccc(S(=O)(=O)C(C)C)c2)C2=C(CC(C)(C)NC2=O)Nc2n[nH]c(C(F)(F)F)c21 [Compound 948423]
		IC50 [1, 7]: ≤ 100 nM; IC50 [1, 11]: ≤ 100 nM; IC50 [2, 8]: ≤ 100 nM; IC50 [2, 12]: ≤ 100 nM	CC(=O)N1C[C@]2(C[C@]3(CO2)C2=C(CC(C)(C)CC2=O)Nc2n[nH]cc23)[C@H]1C [Compound 948437]
		IC50 [1, 7]: ≤ 100 nM; IC50 [2, 8]: ≤ 100 nM	CC(=O)N1C[C@@]2(C[C@]3(CO2)C2=C(CC(C)(C)CC2=O)Nc2n[nH]cc23)[C@@H]1C [Compound 948438]
		IC50 [1, 7]: ≤ 100 nM; IC50 [1, 11]: ≤ 100 nM; IC50 [2, 8]: ≤ 100 nM; IC50 [2, 12]: ≤ 100 nM	CC(=O)N1C[C@]2(C[C@@]3(CO2)C2=C(CC(C)(C)CC2=O)Nc2n[nH]cc23)[C@H]1C [Compound 948439]
		IC50 [1, 7]: ≤ 100 nM; IC50 [2, 8]: ≤ 100 nM	CC(=O)N1C[C@@]2(C[C@@]3(CO2)C2=C(CC(C)(C)CC2=O)Nc2n[nH]cc23)[C@@H]1C [Compound 948440]
> 5000	> 5000		CCC1(c2cccc(-c3ccnc(C)c3)c2)C2=C(CC(C)(COC)NC2=O)Nc2n[nH]cc21 (stereo not drawn) [Compound 948493]
≤ 100	≤ 100	IC50 [1, 5]: 100 to 1000 nM; IC50 [2, 6]: 1000 to 5000 nM	CC[C@]1(c2cccc(-c3ccncc3C)c2)C2=C(CC3(CCC3)NC2=O)Nc2n[nH]cc21 [Compound 948512]
≤ 100	100 to 1000		CC[C@]1(c2cccc(-c3ccnc(C)c3)c2)C2=C(CC3(CCOCC3)NC2=O)Nc2n[nH]c(C)c21 [Compound 948513]
1000 to 5000	> 5000		CCC1(c2cccc(-c3c(F)cncc3F)c2)C2=C(CC(C)(C)NC2=O)Nc2n[nH]cc21 (stereo not drawn) [Compound 948514]
≤ 100	≤ 100	IC50 [1, 5]: ≤ 100 nM; IC50 [2, 6]: 100 to 1000 nM	CCC1(c2cccc(-c3c(Cl)cncc3Cl)c2)C2=C(CC(C)(C)NC2=O)Nc2n[nH]cc21 (stereo not drawn) [Compound 948515]
≤ 100	100 to 1000		CCC1(c2cccc(-c3ccnn3C)c2)C2=C(CC3(CCOCC3)NC2=O)Nc2n[nH]cc21 (stereo not drawn) [Compound 948516]
≤ 100	≤ 100		CC[C@]1(c2cccc(-c3ccnc4ccc(Cl)cc34)c2)C2=C(CC(C)(C)N(C)C2=O)Nc2n[nH]cc21 [Compound 948517]
> 5000	> 5000		CC[C@@]1(c2cccc(-c3ccnc4ccc(OC)cc34)c2)C2=C(CC(C)(C)NC2=O)Nc2n[nH]cc21 [Compound 948518]
> 5000	> 5000		CC[C@@]1(c2cccc(-c3ccnc4cc(F)ccc34)c2)C2=C(CC(C)(C)NC2=O)Nc2n[nH]cc21 [Compound 948519]
100 to 1000	1000 to 5000		CCC1(c2cccc(-c3ccnc(OC)c3F)c2)C2=C(CC(C)(C)NC2=O)Nc2n[nH]cc21 (stereo not drawn) [Compound 948520]
≤ 100	1000 to 5000		CCC1(c2cccc(-c3ccnc(C)c3)c2)C2=C(CC(C)(COC)NC2=O)Nc2n[nH]cc21 (stereo not drawn) [Compound 948521]
100 to 1000	> 5000		CCC1(c2cccc(-c3ccnn3C)c2)C2=C(CC3(CCC3)NC2=O)Nc2n[nH]cc21 (stereo not drawn) [Compound 948522]
≤ 100	100 to 1000		CCC1(c2cccc(-c3ccncc3C)c2)C2=C(CC3(CCC3)NC2=O)Nc2n[nH]cc21 (stereo not drawn) [Compound 948523]
1000 to 5000	> 5000		CCC1(c2cccc(-c3ccnc(C)c3)c2)C2=C(CC3(CCOCC3)NC2=O)Nc2n[nH]cc21 (stereo not drawn) [Compound 948524]
1000 to 5000	> 5000		CC[C@]1(c2cccc(-c3ccnn3C)c2)C2=C(CC3(CCOCC3)NC2=O)Nc2n[nH]cc21 [Compound 948526]
